Measured values as given in patent US20250221408A1, “COMPOSITION” (EARTH CORPORATION, priority 2022, published 2025).
Like-named read-outs stand apart in the source and are kept apart here. Each block holds one molecule with its values, some of them ahead of it.

Legend:
[1] = Decomposition stability of single perfume component in sodium chlorite/benzalkonium chloride preparation, GC-MS, Example 5; conditions: for Area change rate (%) / Decomposition stability of additive component: 50° C. for 2 weeks
[2] = Decomposition stability of perfume components in sodium chlorite/benzalkonium chloride preparation, GC-MS, Examples 1 to 4 (perfume mixtures)
[3] = Lewis acidity measurement method (1): reaction rate constant of CoTPP and oxygen in the presence of Lewis acid; assay type: physicochemical
[4] = perfume component 2 ppm in preparation
[5] = perfume component 3 ppm in preparation
[6] = perfume component 5 ppm in preparation
[7] = perfume component 1 ppm in preparation
[8] = Examples 1 to 4, aged products after 2 weeks of storage, GC-MS
[9] = perfume component 10 ppm in preparation
[10] = perfume component 50 ppm in preparation
[11] = perfume component 6 ppm in preparation
[12] = CoTPP and oxygen under the presence of Lewis acid, MeCN, room temperature

Molecule: CC(C)C12CCC(C)(CC1)O2 [1,4-cineole]
Area change rate (%) [1, 4]: 95%

Molecule: OCc1ccccc1 [Benzyl alcohol]
Area change rate (%) [1, 5]: 84% | Decomposition stability of additive component [1, 5]: ∘ (70% or more)

Molecule: C=C(C)C1CC=C(C)C(=O)C1 (centres unmarked) [Carvone]
Area change rate (%) [1, 6]: 98% | Decomposition stability of additive component [1, 6]: ∘ (70% or more)

Molecule: C=C(C)[C@@H]1CC[C@@H](C)C(=O)C1 [Dihydrocarvone]
Area change rate (%) ([1]; perfume component 4 ppm in preparation): 91%

Molecule: CC1CCC(C(C)(C)O)CC1 (centres unmarked) [Dihydroterpineol]
Area change rate (%) [1, 4]: 99%

Molecule: Cc1coc2c1CCC(C)C2 (centres unmarked) [Menthofuran, reference compound]
Fate of perfume component in aged product (in words) [2, 8]: no peaks were observed

Molecule: CC(C)=C1CC[C@@H](C)CC1=O [Pulegone]
Area change rate (%) [1, 6]: 100% | Decomposition stability of additive component [1, 6]: ∘ (70% or more)

Molecule: CC(C)C12CCC(C)(O)C1C2 (centres unmarked) [Thujanol, reference compound]
Fate of perfume component in aged product (in words) [2]: no peaks were observed

Molecule: CC(C)(C)CC(C)(C)c1ccc(OCCOCC[N+](C)(C)Cc2ccccc2)cc1.[Cl-] [benzetonium chloride, benzethonium chloride]
kcat [3, 12]: 0.24 M^−2 s^−1

Molecule: CCCC[N+](CCCC)(CCCC)CCCC.F[P-](F)(F)(F)(F)F [tetrabutylammonium hexafluorophosphate]
kcat [3]: >0.1 M^−2 s^−1

Molecule: benzalkonium chloride
kcat [3, 12]: 0.18 M^−2 s^−1

The remaining lines, values ahead:

Area change rate (%) [1, 7]: 99% | Decomposition stability of additive component [1, 7]: ∘ (70% or more)
Molecule: CC12CCC(CC1)C(C)(C)O2 [Eucalyptol]

Area change rate (%) [1, 6]: 97%
Molecule: C=CCc1ccc(O)c(OC)c1 [Eugenol]

Fate of perfume component in aged product (in words) ([1]; Example 5, aged product after 2 weeks at 50° C., GC-MS): remarkably decreased | Area change rate (%) [1, 6]: 0% | Fate of perfume component in aged product (in words) [2, 8]: no peaks were observed
Molecule: C=CC(C)(O)CCC=C(C)C (centres unmarked) [Linalool, reference compound]

Area change rate (%) [1, 6]: 100% | Decomposition stability of additive component [1, 6]: ∘ (70% or more) | Area change rate (%) [1, 9]: 100% | Decomposition stability of additive component [1, 9]: ∘ (70% or more) | Area change rate (%) [1, 10]: 100% | Decomposition stability of additive component [1, 10]: ∘ (70% or more)
Molecule: CC1CCC(C(C)C)C(O)C1 (centres unmarked) [Menthol]

Area change rate (%) [1, 6]: 75% | Decomposition stability of additive component [1, 6]: ∘ (70% or more) | Area change rate (%) [1, 9]: 80% | Decomposition stability of additive component [1, 9]: ∘ (70% or more)
Molecule: CC(C)[C@@H]1CC[C@@H](C)CC1=O [Menthone]

Area change rate (%) [1, 11]: 89% | Decomposition stability of additive component [1, 11]: ∘ (70% or more)
Molecule: CC1=CC(=O)C(C(C)C)CC1 (centres unmarked) [Piperitone]

Area change rate (%) [1, 6]: 76% | Decomposition stability of additive component [1, 6]: ∘ (70% or more)
Molecule: Cc1ccc(C(C)C)c(O)c1 [Thymol]

Fate of perfume component in aged product (in words) [2, 8]: no peaks were observed
Molecule: Cc1ccccc1C(C)C [o-cymene, reference compound]
